Source: ChEMBL document CHEMBL3734713, “4-Thiazolidinone derivatives as potent antimicrobial agents: microwave-assisted synthesis, biological evaluation and docking studies” (2015)
Converted amounts (≈) assume the structure as drawn.

What was measured:
Penicillium ochrochloron = assay: Antifungal activity against Penicillium ochrochloron ATCC 9112 assessed as growth inhibition after 72 hrs at 28 degC by serial dilution method; assay type: functional; conditions: for MIC: Penicillium ochrochloron, ATCC 9112, 72 h
Micrococcus flavus = assay: Antibacterial activity against Micrococcus flavus ATCC 10240 assessed as growth inhibition after 24 hrs at 37 degC by iodonitrotetrazolium chloride staining based microdilution broth assay; assay type: functional; conditions: ATCC 10240, 24 h
Enterobacter cloacae = assay: Antibacterial activity against human isolate of Enterobacter cloacae assessed as growth inhibition after 24 hrs at 37 degC by iodonitrotetrazolium chloride staining based microdilution broth assay; assay type: functional
Aspergillus versicolor = assay: Antifungal activity against Aspergillus versicolor ATCC 11730 assessed as growth inhibition after 72 hrs at 28 degC by serial dilution method; assay type: functional; conditions: for MIC: Aspergillus versicolor, ATCC 11730, 72 h
[1] = target: Human immunodeficiency virus type 1 reverse transcriptase (Human immunodeficiency virus 1) (UniProt Q72547); assay: Inhibition of HIV1 reverse transcriptase assessed as residual enzyme activity by measuring reduction in [3H]dTTP incorporation into poly(rA)-oligo(dT) at 4 uM incubated for 15 mins by scintillation counting method relative to control
Escherichia coli = assay: Antibacterial activity against Escherichia coli ATCC 35210 assessed as growth inhibition after 24 hrs at 37 degC by iodonitrotetrazolium chloride staining based microdilution broth assay; assay type: functional; conditions: ATCC 35210, 24 h
Aspergillus niger = assay: Antifungal activity against Aspergillus niger ATCC 6275 assessed as growth inhibition after 72 hrs at 28 degC by serial dilution method; assay type: functional; conditions: for MIC: Aspergillus niger, ATCC 6275, 72 h
Trichoderma viride = assay: Antifungal activity against Trichoderma viride IAM 5061 assessed as growth inhibition after 72 hrs at 28 degC by serial dilution method; assay type: functional; conditions: for MIC: Trichoderma viride, IAM 5061, 72 h
Aspergillus ochraceus = assay: Antifungal activity against Aspergillus ochraceus ATCC 12066 assessed as growth inhibition after 72 hrs at 28 degC by serial dilution method; assay type: functional; conditions: for MIC: Aspergillus ochraceus, ATCC 12066, 72 h
Talaromyces funiculosus = assay: Antifungal activity against Penicillium funiculosum ATCC 36839 assessed as growth inhibition after 72 hrs at 28 degC by serial dilution method; assay type: functional; conditions: for MIC: Talaromyces funiculosus, ATCC 36839, 72 h
Salmonella typhimurium = assay: Antibacterial activity against Salmonella typhimurium ATCC 13311 assessed as growth inhibition after 24 hrs at 37 degC by iodonitrotetrazolium chloride staining based microdilution broth assay; assay type: functional, Salmonella enterica subsp. enterica serovar Typhimurium; conditions: Salmonella enterica, ATCC 13311, 24 h
Pseudomonas aeruginosa = assay: Antibacterial activity against Pseudomonas aeruginosa ATCC 27853 assessed as growth inhibition after 24 hrs at 37 degC by iodonitrotetrazolium chloride staining based microdilution broth assay; assay type: functional; conditions: ATCC 27853, 24 h
Aspergillus fumigatus = assay: Antifungal activity against Aspergillus fumigatus ATCC 1022 assessed as growth inhibition after 72 hrs at 28 degC by serial dilution method; assay type: functional; conditions: for MIC: Aspergillus fumigatus, ATCC 1022, 72 h
Candida albicans = assay: Antifungal activity against Candida albicans ATCC 10231 assessed as growth inhibition after 72 hrs at 28 degC by serial dilution method; assay type: functional; conditions: for MIC: Candida albicans, ATCC 10231, 72 h
Staphylococcus aureus = assay: Antibacterial activity against Staphylococcus aureus ATCC 6538 assessed as growth inhibition after 24 hrs at 37 degC by iodonitrotetrazolium chloride staining based microdilution broth assay; assay type: functional; conditions: ATCC 6538, 24 h
Listeria monocytogenes = assay: Antibacterial activity against Listeria monocytogenes NCTC 7973 assessed as growth inhibition after 24 hrs at 37 degC by iodonitrotetrazolium chloride staining based microdilution broth assay; assay type: functional; conditions: NCTC 7973, 24 h
Bacillus cereus = assay: Antibacterial activity against clinical isolates of Bacillus cereus assessed as growth inhibition after 24 hrs at 37 degC by iodonitrotetrazolium chloride staining based microdilution broth assay; assay type: functional

Row | MIC (Penicillium ochrochloron) | MIC (Micrococcus flavus) | MIC (Enterobacter cloacae) | MIC (Aspergillus versicolor) | MIC (Aspergillus niger) | MIC (Trichoderma viride) | MIC (Aspergillus ochraceus) | MIC (Talaromyces funiculosus) | MIC (Aspergillus fumigatus) | MIC (Candida albicans) | SMILES | MFC99.5 (Penicillium ochrochloron) | MBC (Micrococcus flavus) | MBC (Enterobacter cloacae) | MFC99.5 (Aspergillus versicolor) | MFC99.5 (Aspergillus niger) | MFC99.5 (Trichoderma viride) | MFC99.5 (Aspergillus ochraceus) | MFC99.5 (Talaromyces funiculosus) | MFC99.5 (Aspergillus fumigatus) | MFC99.5 (Candida albicans) | other results
1 | 210 µM (≈ 99.9 µg/mL) | 210 µM (≈ 99.9 µg/mL) | 20 µM (≈ 9.51 µg/mL) | 105 µM (≈ 50 µg/mL) | 210 µM (≈ 99.9 µg/mL) | 105 µM (≈ 50 µg/mL) | 105 µM (≈ 50 µg/mL) | 210 µM (≈ 99.9 µg/mL) | 210 µM (≈ 99.9 µg/mL) | 526 µM (≈ 250 µg/mL) | O=C1CSC(c2ccc(Br)cc2)N1c1nc(C23CC4CC(CC(C4)C2)C3)cs1 (stereo not given) | 21.02 ×10⁻² umol/ml | 420 µM (≈ 200 µg/mL) | 420 µM (≈ 200 µg/mL) | 10.51 ×10⁻² umol/ml | 31.54 ×10⁻² umol/ml | 10.51 ×10⁻² umol/ml | 42.04 ×10⁻² umol/ml | 52.58 ×10⁻² umol/ml | 21.02 ×10⁻² umol/ml | 73.6 ×10⁻² umol/ml | Activity [1]: 59.9%; MBC (Escherichia coli): 210 µM (≈ 99.9 µg/mL); MIC (Escherichia coli): 210 µM (≈ 99.9 µg/mL); MBC (Salmonella typhimurium): 420 µM (≈ 200 µg/mL); MIC (Salmonella typhimurium): 210 µM (≈ 99.9 µg/mL); MBC (Pseudomonas aeruginosa): 630 µM (≈ 300 µg/mL); MIC (Pseudomonas aeruginosa): 420 µM (≈ 200 µg/mL); MBC (Staphylococcus aureus): 420 µM (≈ 200 µg/mL); MIC (Staphylococcus aureus): 420 µM (≈ 200 µg/mL); MBC (Listeria monocytogenes): 630 µM (≈ 300 µg/mL); MIC (Listeria monocytogenes): 420 µM (≈ 200 µg/mL); MBC (Bacillus cereus): 210 µM (≈ 99.9 µg/mL); MIC (Bacillus cereus): 105 µM (≈ 49.9 µg/mL)
2 | 0.4 µM (≈ 0.166 µg/mL) | 30.6 µM (≈ 12.7 µg/mL) | 30.6 µM (≈ 12.7 µg/mL) | 0.4 µM (≈ 0.166 µg/mL) | 0.8 µM (≈ 0.332 µg/mL) | 1.2 µM (≈ 0.497 µg/mL) | 0.4 µM (≈ 0.166 µg/mL) | 0.8 µM (≈ 0.332 µg/mL) | 0.8 µM (≈ 0.332 µg/mL) | 0.8 µM (≈ 0.332 µg/mL) | O=C1CSC(c2cccc(F)c2)N1c1nc(C23CC4CC(CC(C4)C2)C3)cs1 (stereo not given) | 0.14 ×10⁻² umol/ml | 61.2 µM (≈ 25.4 µg/mL) | 125 µM (≈ 51.8 µg/mL) | 0.14 ×10⁻² umol/ml | 0.14 ×10⁻² umol/ml | 0.14 ×10⁻² umol/ml | 0.14 ×10⁻² umol/ml | 0.14 ×10⁻² umol/ml | 0.14 ×10⁻² umol/ml | 0.14 ×10⁻² umol/ml | Activity [1]: 100%; MBC (Escherichia coli): 125 µM (≈ 51.8 µg/mL); MIC (Escherichia coli): 15.3 µM (≈ 6.34 µg/mL); MBC (Salmonella typhimurium): 15.3 µM (≈ 6.34 µg/mL); MIC (Salmonella typhimurium): 9 µM (≈ 3.73 µg/mL); MBC (Pseudomonas aeruginosa): 15.3 µM (≈ 6.34 µg/mL); MIC (Pseudomonas aeruginosa): 9 µM (≈ 3.73 µg/mL); MBC (Staphylococcus aureus): 500 µM (≈ 207 µg/mL); MIC (Staphylococcus aureus): 300 µM (≈ 124 µg/mL); MBC (Listeria monocytogenes): 125 µM (≈ 51.8 µg/mL); MIC (Listeria monocytogenes): 15.3 µM (≈ 6.34 µg/mL); MBC (Bacillus cereus): 500 µM (≈ 207 µg/mL); MIC (Bacillus cereus): 300 µM (≈ 124 µg/mL)
3 | 215 µM (≈ 100 µg/mL) | 215 µM (≈ 100 µg/mL) | 430 µM (≈ 200 µg/mL) | 215 µM (≈ 100 µg/mL) | 215 µM (≈ 100 µg/mL) | 215 µM (≈ 100 µg/mL) | 107 µM (≈ 50 µg/mL) | 215 µM (≈ 100 µg/mL) | 215 µM (≈ 100 µg/mL) | 430 µM (≈ 200 µg/mL) | O=C1CSC(c2c(Cl)cccc2Cl)N1c1nc(C23CC4CC(CC(C4)C2)C3)cs1 (stereo not given) | 32.22 ×10⁻² umol/ml | 430 µM (≈ 200 µg/mL) | 430 µM (≈ 200 µg/mL) | 32.22 ×10⁻² umol/ml | 32.22 ×10⁻² umol/ml | 21.48 ×10⁻² umol/ml | 53.71 ×10⁻² umol/ml | 53.71 ×10⁻² umol/ml | 53.71 ×10⁻² umol/ml | 64.45 ×10⁻² umol/ml | Activity [1]: 52.5%; MBC (Escherichia coli): 430 µM (≈ 200 µg/mL); MIC (Escherichia coli): 215 µM (≈ 100 µg/mL); MBC (Salmonella typhimurium): 430 µM (≈ 200 µg/mL); MIC (Salmonella typhimurium): 215 µM (≈ 100 µg/mL); MBC (Pseudomonas aeruginosa): 645 µM (≈ 300 µg/mL); MIC (Pseudomonas aeruginosa): 430 µM (≈ 200 µg/mL); MBC (Staphylococcus aureus): 645 µM (≈ 300 µg/mL); MIC (Staphylococcus aureus): 430 µM (≈ 200 µg/mL); MBC (Listeria monocytogenes): 860 µM (≈ 400 µg/mL); MIC (Listeria monocytogenes): 430 µM (≈ 200 µg/mL); MBC (Bacillus cereus): 645 µM (≈ 300 µg/mL); MIC (Bacillus cereus): 430 µM (≈ 200 µg/mL)

Row | SMILES | MIC (Penicillium ochrochloron) | MIC (Micrococcus flavus) | MIC (Enterobacter cloacae) | MIC (Aspergillus versicolor) | MIC (Aspergillus niger) | MIC (Trichoderma viride) | MIC (Aspergillus ochraceus) | MIC (Talaromyces funiculosus) | MIC (Aspergillus fumigatus) | MIC (Candida albicans) | MFC99.5 (Penicillium ochrochloron) | MBC (Micrococcus flavus) | MBC (Enterobacter cloacae) | MFC99.5 (Aspergillus versicolor) | MFC99.5 (Aspergillus niger) | MFC99.5 (Trichoderma viride) | MFC99.5 (Aspergillus ochraceus) | MFC99.5 (Talaromyces funiculosus) | MFC99.5 (Aspergillus fumigatus) | MFC99.5 (Candida albicans) | other results
4 | c1ccc(-c2ccc(C(c3ccccc3)n3ccnc3)cc2)cc1 (stereo not given) [BIFONAZOLE] | 480 µM (≈ 149 µg/mL) | – | – | 320 µM (≈ 99.3 µg/mL) | 480 µM (≈ 149 µg/mL) | 640 µM (≈ 199 µg/mL) | 480 µM (≈ 149 µg/mL) | 640 µM (≈ 199 µg/mL) | 480 µM (≈ 149 µg/mL) | 320 µM (≈ 99.3 µg/mL) | 64 ×10⁻² umol/ml | – | – | 64 ×10⁻² umol/ml | 64 ×10⁻² umol/ml | 80 ×10⁻² umol/ml | 80 ×10⁻² umol/ml | 80 ×10⁻² umol/ml | 64 ×10⁻² umol/ml | 48 ×10⁻² umol/ml | –
